Like-named read-outs stand apart in the source and are kept apart here.
Experiments:
Format in all cases: in vivo
[1] = system: sedge, umbrella (small-flower umbrella sedge, Cyperus difformis); test: Test B flooded paddy test; settings: Cyperus difformis, Flood, 250 g ai/ha, read-out: Sedge, Umbrella plant response rating
In short: (§1)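 Plants at 2-leaf stage flooded to 3 cm above soil, with compounds applied directly to paddy water and that depth maintained. Plants kept in greenhouse 13–15 d. Visual rating versus controls on a 0 (no effect) to 100 (complete control) scale.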

[2] = system: barnyardgrass (Echinochloa crus-galli); test: Test B flooded paddy test; settings: Echinochloa crus-galli, Flood, 250 g ai/ha, read-out: Barnyardgrass plant response rating
In short: as §1

[3] = system: ducksalad (Heteranthera limosa); test: Test B flooded paddy test; settings: Heteranthera limosa, Flood, 250 g ai/ha, read-out: Ducksalad plant response rating
In short: as §1

[4] = system: rice (Oryra sativa); test: Test B flooded paddy test; settings: Oryza sativa, Flood, 250 g ai/ha, read-out: Rice plant response rating
In short: as §1

[5] = system: pigweed (Amaranthus retroflexus); test: Test A preemergence; settings: Amaranthus retroflexus, pre-emergence, 240 h; for pest or weed control at 125 g/ha: 125 g ai/ha; for pest or weed control at 500 g/ha: 500 g ai/ha
[6] = system: giant foxtail (Setaria faberii); test: Test A postemergence; settings: Setaria faberi, post-emergence, 240 h, postemergence; for pest or weed control at 125 g/ha: 125 g ai/ha
In short: (§2)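 In a loam soil and sand blend, planted seeds got a preemergence directed soil spray, and young plants at the one- to two-leaf stage, 2–10 cm high, got a postemergence application; ~10 d greenhouse hold; injury rated visually, 0 = none, 100 = complete control.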

[7] = system: Kochia (Kochia scoparia); test: Test A postemergence; settings: Bassia scoparia, post-emergence, 240 h, postemergence; for pest or weed control at 125 g/ha: 125 g ai/ha
In short: as §2

[8] = system: corn (Zea mays); test: Test A postemergence; settings: Zea mays, post-emergence, 240 h, postemergence; for plant injury at 125 g/ha: 125 g ai/ha
In short: as §2

[9] = system: wheat (Triticum aestivum); test: Test A postemergence; settings: Triticum aestivum, post-emergence, 240 h, 125 g ai/ha, postemergence
In short: as §2

[10] = system: barnyardgrass (Echinochloa crus-galli); test: Test A postemergence; settings: Echinochloa crus-galli, post-emergence, 240 h, postemergence; for pest or weed control at 125 g/ha: 125 g ai/ha
In short: as §2

[11] = system: ragweed (common ragweed, Ambrosia elatior); test: Test A postemergence; settings: Ambrosia artemisiifolia, post-emergence, 240 h, 125 g ai/ha, postemergence
In short: as §2

[12] = system: blackgrass (Alopecurus myosuroides); test: Test A postemergence; settings: Alopecurus myosuroides, post-emergence, 240 h, postemergence; for pest or weed control at 125 g/ha: 125 g ai/ha
In short: as §2

[13] = system: ryegrass, Italian (Italian ryegrass, Lolium multiflorum); test: Test A postemergence; settings: Lolium multiflorum, post-emergence, 240 h, 125 g ai/ha, postemergence
In short: as §2

[14] = system: pigweed (Amaranthus retroflexus); test: Test A postemergence; settings: Amaranthus retroflexus, post-emergence, 240 h, 125 g ai/ha, postemergence
In short: as §2

[15] = system: Galium (catchweed bedstraw, Galium aparine); test: Test A postemergence; settings: Galium, post-emergence, 240 h, postemergence; for pest or weed control at 125 g/ha: 125 g ai/ha
In short: as §2

[16] = scale of 0 to 100 where 0 is no effect and 100 is complete control
[17] = preemergence, 0 to 100 scale where 0 is no effect and 100 is complete control, read-out: Pigweed plant response rating
[18] = Preemergence, visual injury vs untreated controls after approximately 10 d, read-out: Pigweed plant response rating (0 to 100 scale where 0 is no effect and 100 is complete control)
[19] = visual injury rating after approximately 10 d, read-out: Foxtail, Giant plant response rating (0 to 100 scale, 0 no effect, 100 complete control)
[20] = visual injury rating after approximately 10 d, read-out: Kochia plant response rating (0 to 100 scale, 0 no effect, 100 complete control)
[21] = visual injury rating after approximately 10 d, read-out: Corn plant response rating (0 to 100 scale, 0 no effect, 100 complete control)
[22] = visual injury rating after approximately 10 d, read-out: Wheat plant response rating (0 to 100 scale, 0 no effect, 100 complete control)
[23] = visual injury rating after approximately 10 d, read-out: Barnyardgrass plant response rating (0 to 100 scale, 0 no effect, 100 complete control)
[24] = visual injury rating after approximately 10 d, read-out: Ragweed plant response rating (0 to 100 scale, 0 no effect, 100 complete control)
[25] = visual injury rating after approximately 10 d, read-out: Blackgrass plant response rating (0 to 100 scale, 0 no effect, 100 complete control)
[26] = visual injury rating after approximately 10 d, read-out: Ryegrass, Italian plant response rating (0 to 100 scale, 0 no effect, 100 complete control)
[27] = visual injury rating after approximately 10 d, read-out: Pigweed plant response rating (0 to 100 scale, 0 no effect, 100 complete control)
[28] = visual injury rating after approximately 10 d, read-out: Galium plant response rating (0 to 100 scale, 0 no effect, 100 complete control)
[29] = 0 to 100 scale where 0 is no effect and 100 is complete control

Molecule `COc1c(F)ccc([C@H]2CNC(=O)[C@@H]2C(=O)Nc2ccc(F)cc2F)c1Cl` [Compound 883] has a pest or weed control at 250 g/ha [1, 16] of 0%, a pest or weed control at 250 g/ha [2, 16] of 0% and a pest or weed control at 250 g/ha [3, 16] of 80%. The pest or weed control at 250 g/ha [4, 16] was 20%, the pest or weed control at 125 g/ha [5, 17] was 0% and the pest or weed control at 500 g/ha [5, 18] was 0%. For the same molecule, the pest or weed control at 125 g/ha [6, 19] was 70%, the pest or weed control at 125 g/ha [7, 20] was 30% and the plant injury at 125 g/ha [8, 21] was 0%. For the same molecule, the plant injury at 125 g/ha [9, 22] was 0%, the pest or weed control at 125 g/ha [10, 23] was 90% and the pest or weed control at 125 g/ha [11, 24] was 0%. The pest or weed control at 125 g/ha [12, 25] was 0%, the pest or weed control at 125 g/ha [13, 26] was 0% and the pest or weed control at 125 g/ha [14, 27] was 0%. The pest or weed control at 125 g/ha [15, 28] was 0%.
Molecule `CN1C[C@H](c2cccc(F)c2)[C@@H](C(=O)Nc2ccccc2S(C)(=O)=O)C1=O` [Compound 824] has a pest or weed control at 250 g/ha [1, 16] of 0%, a pest or weed control at 250 g/ha [2, 16] of 65% and a pest or weed control at 250 g/ha [3, 16] of 95%. The pest or weed control at 250 g/ha [4, 16] was 0%, the pest or weed control at 125 g/ha [5, 17] was 0% and the pest or weed control at 500 g/ha [5, 18] was 40%. For the same molecule, the pest or weed control at 125 g/ha [6, 19] was 90%, the pest or weed control at 125 g/ha [7, 20] was 0% and the plant injury at 125 g/ha [8, 21] was 0%. The plant injury at 125 g/ha [9, 22] was 0%, the pest or weed control at 125 g/ha [10, 23] was 90% and the pest or weed control at 125 g/ha [11, 24] was 30%. For the same molecule, the pest or weed control at 125 g/ha [12, 25] was 20%, the pest or weed control at 125 g/ha [13, 26] was 30% and the pest or weed control at 125 g/ha [14, 27] was 0%. For the same molecule, the pest or weed control at 125 g/ha [15, 28] was 40%.
Molecule `COc1cccc(C2CN(C)C(=O)C2C(=O)Nc2cccc(F)c2F)c1` (stereo not shown) [Compound 886] has a pest or weed control at 250 g/ha [1, 16] of 0%, a pest or weed control at 250 g/ha [2, 16] of 75% and a pest or weed control at 250 g/ha [3, 16] of 50%. The pest or weed control at 250 g/ha [4, 16] was 0%, the pest or weed control at 125 g/ha [5, 17] was 0% and the pest or weed control at 500 g/ha [5, 18] was 0%. The pest or weed control at 125 g/ha [6, 19] was 90%, the pest or weed control at 125 g/ha [7, 20] was 0% and the plant injury at 125 g/ha [8, 21] was 40%. It also gave a plant injury at 125 g/ha [9, 22] of 0%, a pest or weed control at 125 g/ha [10, 23] of 90% and a pest or weed control at 125 g/ha [11, 24] of 0%. The pest or weed control at 125 g/ha [12, 25] was 20%, the pest or weed control at 125 g/ha [13, 26] was 20% and the pest or weed control at 125 g/ha [14, 27] was 0%. It also gave a pest or weed control at 125 g/ha [15, 28] of 0%.
`O=C(Nc1ccccc1C(F)(F)F)[C@H]1C(=S)NC[C@@H]1c1ccc(C(F)(F)F)cc1` (racemic) [Compound 1049] gave a pest or weed control at 250 g/ha [1, 29] of 0%, a pest or weed control at 250 g/ha [2, 29] of 20% and a pest or weed control at 250 g/ha [3, 29] of 70%. It also gave a pest or weed control at 250 g/ha [4, 29] of 0%, a pest or weed control at 125 g/ha ([5]; Preemergence, visual injury rating after approximately 10 d, read-out: Pigweed plant response rating (0 to 100 scale, 0 is no effect, 100 is complete control)) of 0% and a pest or weed control at 500 g/ha ([5]; preemergence, visual injury rating about 10 d after treatment, 0 to 100 scale (0 no effect, 100 complete control), read-out: Pigweed plant response rating) of 60%. For the same molecule, the pest or weed control at 125 g/ha ([6]; visual injury on 0 to 100 scale (0 no effect, 100 complete control), approx. 10 d, read-out: Foxtail, Giant plant response rating) was 70%, the pest or weed control at 500 g/ha ([6]; 500 g ai/ha, visual injury, 0 to 100 scale (0 no effect, 100 complete control), approx. 10 d, read-out: Plant response rating, Foxtail, Giant) was 80% and the pest or weed control at 125 g/ha ([7]; visual injury on 0 to 100 scale (0 no effect, 100 complete control), approx. 10 d, read-out: Kochia plant response rating) was 0%. For the same molecule, the pest or weed control at 500 g/ha ([7]; 500 g ai/ha, visual injury, 0 to 100 scale (0 no effect, 100 complete control), approx. 10 d, read-out: Plant response rating, Kochia) was 30%, the plant injury at 125 g/ha ([8]; visual injury on 0 to 100 scale (0 no effect, 100 complete control), approx. 10 d, read-out: Corn plant response rating) was 0% and the Corn plant response rating (crop injury, 0 = no effect, 100 = complete kill) at 500 g/ha ([8]; 500 g ai/ha, visual injury, 0 to 100 scale (0 no effect, 100 complete control), approx. 10 d) was 0%. For the same molecule, the plant injury at 125 g/ha ([9]; visual injury on 0 to 100 scale (0 no effect, 100 complete control), approx. 10 d, read-out: Wheat plant response rating) was 0%, the pest or weed control at 125 g/ha ([10]; visual injury on 0 to 100 scale (0 no effect, 100 complete control), approx. 10 d, read-out: Barnyardgrass plant response rating) was 30% and the pest or weed control at 500 g/ha ([10]; 500 g ai/ha, visual injury, 0 to 100 scale (0 no effect, 100 complete control), approx. 10 d, read-out: Plant response rating, Barnyardgrass) was 50%. For the same molecule, the pest or weed control at 125 g/ha ([11]; visual injury on 0 to 100 scale (0 no effect, 100 complete control), approx. 10 d, read-out: Ragweed plant response rating) was 0%, the pest or weed control at 125 g/ha ([12]; visual injury on 0 to 100 scale (0 no effect, 100 complete control), approx. 10 d, read-out: Blackgrass plant response rating) was 0% and the pest or weed control at 500 g/ha ([12]; 500 g ai/ha, visual injury, 0 to 100 scale (0 no effect, 100 complete control), approx. 10 d, read-out: Plant response rating, Blackgrass) was 0%. For the same molecule, the pest or weed control at 125 g/ha ([13]; visual injury on 0 to 100 scale (0 no effect, 100 complete control), approx. 10 d, read-out: Ryegrass, Italian plant response rating) was 0%, the pest or weed control at 125 g/ha ([14]; visual injury on 0 to 100 scale (0 no effect, 100 complete control), approx. 10 d, read-out: Pigweed plant response rating) was 10% and the pest or weed control at 125 g/ha ([15]; visual injury on 0 to 100 scale (0 no effect, 100 complete control), approx. 10 d, read-out: Galium plant response rating) was 0%. It also gave a pest or weed control at 500 g/ha ([15]; 500 g ai/ha, visual injury, 0 to 100 scale (0 no effect, 100 complete control), approx. 10 d, read-out: Plant response rating, Galium) of 40%.

From US12077503B2, “Substituted cyclic amides and their use as herbicides” (FMC CORPORATION, priority 2015, dated 2024)
